The results in this text go back to patent publication US5877154A, “Pharmaceutical compositions for the treatment or prevention of disorders in the eye” (Ramot University Authority for Applied Research and …, priority 1992, dated 1999).

Experiment [1] has as its system leukotriene B4 (LTB4) production in the corneas. Description: LTB4 production in corneas of rats exposed to UV irradiation. The following applies: dexamethasone 4 mg/kg per day, melanotropin 10 μg/kg per day, irradiated untreated 2.47±0.8. The experiment is classed as in vivo, albino rats. As for the experimental part:
The antinflammatory activity of melanotropin in the eye was measured by the ability of the melanotropin to inhibit the production of the leukotriene (LTB4) which is produced during the inflammatory response elicited by noxious stimulae to the cornea.
The ability of melanotropin to inhibit an inflammatory response was determined in corneas of albino rats subjected to UV irradiation. The parameter used to measure the inflammatory response was the amount of production of leukotriene B4--known for its modulatory action in inflammation.
One eye of albino rats of either sex weighing 200-250 gm was exposed to UV irradiation (200-400 nm) for 15 min. daily for 4 consecutive days. The other contralateral eye of each rat was not exposed to the irradiation and served as a control. […]
In the treated group of animals, the specific treatment began each day within one hour after the UV exposure. […] At the end of the incubation, a sample was obtained from the medium and the contents of the leukotrien B4 (LTB4) was determined by a radioimmunoassay (RIA) technique using a New England Nuclear Kit with a specific antibody against LTB4.

The subject of experiment [2] is prostaglandin type E2 (PGE2) production. Description: PGE2 production in eyes of rats exposed to UV irradiation. It is filed as in vivo, albino rats. The following applies: dexamethasone 4 mg/kg per day, melanotropin 10 μg per day. Here is the method:
One eye of albino rats of either sex weighing 200-250 gm was exposed to UV irradiation (200-400 nm) for 15 min. daily for 4 consecutive days. The other contralateral eye of each rat was not exposed to the irradiation and served as a control.
The animals were divided into three groups (8 rats in each group) as follows: (1) untreated; (2) rabbits exposed to UV irradiation and a daily intermuscular (i.m.) injection of 4 mg/kg dexamethasone; and (3) rabbits exposed to UV irradiation and treated with a daily injection (i.m.) of 10 μg/kg of melanotropin.
In the treated group of animals, the specific treatment began each day within one hour after the UV exposure. The animals were sacrificed two days following the last UV irradiation and the eyes were frozen at -70° C. The cornea was disected and incubated in a shaking bath at 37° C. for 40 mins. in a Heppes buffer (pH=7.4). At the end of the incubation, a sample was obtained from the medium and the contents of the leukotrien B4 (LTB4) was determined by a radioimmunoassay (RIA) technique using a New England Nuclear Kit with a specific antibody against LTB4.
The production of prostaglandin type E2 (PGE2) was also measured in the eyes of three groups of rats. The amount of PGE2 in the eyes exposed to UV irradiation was higher than in the nonirradiated control eyes (4.1±1.9 pg/mg weight as compared to 1.8±0.3 pg/mg weight, p=0.001).

Experiment [3] concerns bovine vascular endothilial cells (ABAE). Description: 3H-Thymidine uptake by bovine vascular endothelial cells. It is filed as cell-based. The following applies: bFGF 9 ng/ml; EGF 10 ng/ml; melanotropin 10^-6 M and 10^-7 M; single set of experiments. As for the experimental part:
ABAE cells were grown in DMEM (Dulbeccos Modified Eagles Media) supplemented with 5% heat inactivated fetal calf serum, 5% heat inactivated newborn calf serum, 2 mM glutamine and antibiotics (100 U/ml penicillin G, 0.25 mg/ml amphotericin B and 0.1 mg/ml streptomycin) (all from Biological Industries, Beth HaEmek, Israel) in 56.7 cm^2 tissue culture dishes (Nunc, Roskilde, Denmark) at 37° C. in a humidified atmosphere incubator with 10% CO2.
The cultures were supplemented every other day with 10^-9 ng/ml of bFGF until they reached confluency.
The cells were then trypsinized by adding 0.041% trypsin (Biological Industries, Beth HaEmek, Israel) for a few minutes at 37° C. The cells were then diluted by a factor of six and plated in microwell plates. Growth medium was changed twice a week.
The cells were then divided into five groups as described in Examples 1 and 2 and a different medium was added to the wells of each group as follows: (1) serum free medium containing melanotropin 10^-6 M; (2) serum free medium containing melanotropin 10^-7 M; (3) serum free medium containing EGF 10 ng/ml; (4) serum free medium containing bFGF 9 ng/ml; and (5) serum free medium alone.
The degree of ^3 H-Thymidine uptake by the cells was again determined as described in Examples 1 and 2.

The test system of experiment [4] is human skin fibroblast (HSF) cell culture. The experiment is described as follows: 3H-Thymidine uptake by human skin fibroblast cell culture. It is filed as cell-based. The following applies: bFGF 9 ng/ml; EGF 10 ng/ml; melanotropin 10^-6 M and 10^-7 M; serum free medium, FIG. 2. Here is the method: HSF cells were grown in DMEM (Dulbeccos Modified Eagles Media) supplemented with 10% heat inactivated fetal calf serum, 2 mM glutamine and antibiotics (100 U/mi penicillin G, 0.25 mg/ml amphotericin B and 0.1 mg/ml streptomycin) (Biological Industries, Beth Haemek, Israel) in 56.7 cm^2 tissue culture flasks (Nunc, Roskilde, Denmark) at 37° C. in a 10% CO2 humidified atmosphere incubator. When the cells reached confluency, they were tripsinized by incubation with 0.083% tripsine (Biological Industries, Beth HaEmek, Israel) for a few minutes at 37° C. and seeded (please complete). The growth medium of the cells with or without drugs was changed twice a week.
The wells were then divided into five groups and a different medium was added to the wells of each group as described in Example 1. The medium added to each of the five groups was: (1) serum free medium containing melanotropin 10^-6 M; (2) serum free medium containing melanotropin 10^-7 M; (3) serum free medium containing EGF 10 ng/ml; (4) serum free medium containing bFGF 9 nn/ml; and (5) serum free medium only.
The degree of ^3 H-Thymidine uptake by human skin fibroblast was determined as described in Example 1.

The test system of the next experiment is bovine RPE cells. The experiment is described as follows: wound closure technique: proliferation and migration of RPE cells over denuded area. It is filed as cell-based. The following applies: bFGF 10^-10 mg/ml. Here is the method:
The ability of RPE cells to proliferate and migrate over denuded areas was measured using a slight modification of the previously known technique termed "wound closure technique" (Jumblatt and Neufeld, 1986).
In this example bovine RPE cells were grown as described in Example 1 and plated in microwell plates containing 16 ml wells. When the cultures reached confluency, sloughing of the cells from a centrally located area in each well was carried out using a very sharp blade. In order to remove non adherent cells, each well was rinsed with a 1 ml Earle's balanced salt solution (EBSS: Gibco). The cultures were photographed at the time of the sloughing and at 12, 24 and 48 hours after the sloughing procedure. In this way the size of the denuded area in the culture at the time of the sloughing was documented and could be compared later to the same cultures at different time periods after the denudation.
The ability of the bovine RPE cells to proliferate and migrate over the denuded area in the well was determined by analyzing the covered and uncovered area in the photographs of the cultures taken at different time periods as described in Jumblatt & Neufeld (ibid). The rate of the "wound" closure was calculated as mm^2 per hour or as the percentage of the covered area in the culture wells at a specific time period.
The bovine RPE cell cultures were divided into six groups. […]

Turning to `C[C@@H]1C[C@H]2[C@@H]3CCC4=CC(=O)C=C[C@]4(C)[C@@]3(F)[C@@H](O)C[C@]2(C)[C@@]1(O)C(=O)CO` [dextamethasone, dexamethasone], the “LTB4 produced by the corneas of the UV irradiated eyes” value in experiment [1] amounted to 9.38±2.4 pg/mg weight. Further, the “PGE2 produced by UV irradiated corneas compared with irradiated but untreated corneas” value in experiment [2] is “lower than the amount of the PGE2 in the irradiated but untreated rats' corneas”.

In the case of “EGF: Epidermal growth factor, comparison growth factor”, in experiment [3], the “3H-Thymidine uptake by the bovine vascular endothilium cells” value is listed as “significant induction”. Moreover, the “3H-Thymidine uptake of human skin fibroblasts as compared to cells treated with medium alone” value in experiment [4] was “did not cause any increase”.

Turning to “bFGF: basic fibroblast growth factor, comparison growth factor”, the “cell covered area in the wells” value with bovine RPE cells (12 hours after the wounding) worked out at 11.4±1.1 mm^2. In addition, the “cell covered area in the culture” value in the experiment on bovine RPE cells (48 hours after addition, p<0.05 vs medium alone) is 21.1±0.7 mm^2. Also, in experiment [3], the “3H-Thymidine uptake by the bovine vascular endothilium cells” value is “significant induction”. Moreover, the “3H-Thymidine uptake of human skin fibroblasts as compared to cells treated with medium alone” value in experiment [4] was “five-fold increase”.
